For the assay, the system named is KLK-5. As to the kind of experiment: Inhibition of the synthesis of KLK-5 secreted by normal human keratinocytes in an environment mimicking rosacea (IL-17 + Vit. D induction, ELISA on supernatants, normalized to MTT cell viability). The assay is classed as cell-based. Particulars: Keratinocyte, NHK, 48 hours, induced with IL-17 10 ng/ml + Vit. D 10-7 mol/L, 1 mM calcium, positive control. As for the experimental part: NHKs originating from LONZA (France) were used in this study.
The culture conditions are as follows: • Cell type: NHK donor PP12 • Culture medium: KBM+Lonza supplements=KGM • Seeding density: 15,000 cells/well in 96-well plates with 100 μl of medium.
The conditions for induction of the synthesis of KLK-5 are as follows: • Presence of 1 mM of calcium • Inducer mix: (see Table 1) IL-17 at 10 ng/ml+Vit. D at 10-7 mol/L • Processing time: 48 hours • Positive control of induced KLK5 inhibition: Dexamethasone at 1 μM
The quantification of KLK-5 in the supernatants is carried out using an Enzyme Linked Immunosorbent Assay (ELISA) (Ref: DY8459-05, R&D Systems, France) with the reagents recommended by the manufacturer (DuoSet Ancillary Reagent Kit 2, Ref: DY008, R&D Systems, France) and used according to the manufacturer's instructions.
The optical density (OD) is read with a spectrophotometer at 450 nm. The concentration of KLK-5 is calculated from the standard range (15.6 to 1000 pg/ml) established with the recombinant human protein of KLK-5.
A dilution of the supernatants to 1/50th is mandatory so that the samples are not out of range. […]
MTT is a soluble yellow dye which is metabolized by mitochondrial enzymes (succinate dehydrogenase) into a dark blue compound: formazan. The formazan crystals are then dissolved in DMSO then the optical density is measured spectrophotometrically at 540 nm. […]

SMILES strings stand for the structures.

In the case of `C[C@@H]1C[C@H]2[C@@H]3CCC4=CC(=O)C=C[C@]4(C)[C@@]3(F)[C@@H](O)C[C@]2(C)[C@@]1(O)C(=O)CO` [dexamethasone], the inhibition – broadly, the drop in the measured response relative to a control, in per cent – at 1 µM is 16.6%.

(Values after US11813350B2, “Composition for the treatment of rosacea and/or telangiectasia” (NAOS INSTITUTE OF LIFE SCIENCE, priority 2020, dated 2023).)
